# Tested on: PC3 cells
# Experiment: NAMPT Cell Proliferation Assay
# Type: cell-based
# Conditions: Homo sapiens, PC-3, 120 h, 5 days incubation, cell viability by Cell Titer Glo
# Summary of the method: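 PC3 cells were plated at 500 cells/well in RPMI with 10% heat-inactivated FBS, left to attach overnight, then given compounds in 10-fold dilutions from 10 μM to 1×10^−5 μM. After 5 days at 37° C and 5% CO2, viability was read by luminescence and IC50s came from sigmoidal fits of percent inhibition.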
row,IC50,SMILES
1,6.38 nM,"N#Cc1ccc(C(=O)N2CCC(c3ccc(C(=O)NCc4ccn5ccnc5c4)cc3)CC2)c(Cl)c1 [Example 934, 4-[1-(2-chloro-4-cyanobenzoyl)piperidin-4-yl]-N-(imidazo[1,2-a]pyridin-7-ylmethyl)benzamide]"
2,10.3 nM,"C/C=C(\C)C(=O)N1CCC(c2ccc(C(=O)NCc3ccn4ccnc4c3)cc2)CC1 [Example 935, N-(imidazo[1,2-a]pyridin-7-ylmethyl)-4-{1-[(2E)-2-methylbut-2-enoyl]piperidin-4-yl}benzamide]"
3,32.5 nM,"COc1ccc(C)cc1CC(=O)N1CCC(c2ccc(C(=O)NCc3ccn4ccnc4c3)cc2)CC1 [Example 936, N-(imidazo[1,2-a]pyridin-7-ylmethyl)-4-{1-[(2-methoxy-5-methylphenyl)acetyl]piperidin-4-yl}benzamide]"
4,80.9 nM,"Cc1cccc(C(=O)N2CCC(c3ccc(C(=O)NCc4ccn5ccnc5c4)cc3)CC2)c1O [Example 937, 4-[1-(2-hydroxy-3-methylbenzoyl)piperidin-4-yl]-N-(imidazo[1,2-a]pyridin-7-ylmethyl)benzamide]"
5,6.27 nM,"O=C(NCc1ccn2ccnc2c1)Nc1ccc(C2CCN(C(=O)c3cccnc3Cl)CC2)cc1 [Example 938, 1-(4-{1-[(2-chloropyridin-3-yl)carbonyl]piperidin-4-yl}phenyl)-3-(imidazo[1,2-a]pyridin-7-ylmethyl)urea]"
6,> 10000 nM,"CC(C)=CC(=O)N1CCC(c2ccc(NC(=O)NCc3ccn4ccnc4c3)cc2)CC1 [Example 939, 1-(imidazo[1,2-a]pyridin-7-ylmethyl)-3-{4-[1-(3-methylbut-2-enoyl)piperidin-4-yl]phenyl}urea]"
7,0.691 nM,"CC(C)(C)CC(=O)N1CCC(c2ccc(NC(=O)NCc3ccn4ccnc4c3)cc2)CC1 [Example 940, 1-{4-[1-(3,3-dimethylbutanoyl)piperidin-4-yl]phenyl}-3-(imidazo[1,2-a]pyridin-7-ylmethyl)urea]"
8,0.519 nM,"CC1=C(C(=O)N2CCC(c3ccc(NC(=O)NCc4ccn5ccnc5c4)cc3)CC2)CCC1 [Example 941, 1-(imidazo[1,2-a]pyridin-7-ylmethyl)-3-(4-{1-[(2-methylcyclopent-1-en-1-yl)carbonyl]piperidin-4-yl}phenyl)urea]"
9,1.02 nM,"CCC(CC)C(=O)N1CCC(c2ccc(NC(=O)NCc3ccn4ccnc4c3)cc2)CC1 [Example 942, 1-{4-[1-(2-ethylbutanoyl)piperidin-4-yl]phenyl}-3-(imidazo[1,2-a]pyridin-7-ylmethyl)urea]"
10,24.4 nM,"O=C(NCc1ccn2ccnc2c1)Nc1ccc(C2CCN(C(=O)COc3ccc(F)cc3)CC2)cc1 [Example 943, 1-(4-{1-[(4-fluorophenoxy)acetyl]piperidin-4-yl}phenyl)-3-(imidazo[1,2-a]pyridin-7-ylmethyl)urea]"
11,3.36 nM,"COc1ccc(C(=O)N2CCC(c3ccc(NC(=O)NCc4ccn5ccnc5c4)cc3)CC2)c(OC)c1 [Example 944, 1-{4-[1-(2,4-dimethoxybenzoyl)piperidin-4-yl]phenyl}-3-(imidazo[1,2-a]pyridin-7-ylmethyl)urea]"
12,2.38 nM,"O=C(NCc1ccn2ccnc2c1)Nc1ccc(C2CCN(C(=O)C3CC=CCC3)CC2)cc1 (centres unmarked) [Example 945, 1-{4-[1-(cyclohex-3-en-1-ylcarbonyl)piperidin-4-yl]phenyl}-3-(imidazo[1,2-a]pyridin-7-ylmethyl)urea]"
13,5.94 nM,"COc1ccc(OC)c(C(=O)N2CCC(c3ccc(NC(=O)NCc4ccn5ccnc5c4)cc3)CC2)c1 [Example 946, 1-{4-[1-(2,5-dimethoxybenzoyl)piperidin-4-yl]phenyl}-3-(imidazo[1,2-a]pyridin-7-ylmethyl)urea]"
14,3.28 nM,"COc1ccccc1CC(=O)N1CCC(c2ccc(NC(=O)NCc3ccn4ccnc4c3)cc2)CC1 [Example 947, 1-(imidazo[1,2-a]pyridin-7-ylmethyl)-3-(4-{1-[(2-methoxyphenyl)acetyl]piperidin-4-yl}phenyl)urea]"
15,5.39 nM,"O=C(NCc1ccn2ccnc2c1)Nc1ccc(C2CCN(C(=O)C(CO)c3ccccc3)CC2)cc1 (centres unmarked) [Example 948, 1-{4-[1-(3-hydroxy-2-phenylpropanoyl)piperidin-4-yl]phenyl}-3-(imidazo[1,2-a]pyridin-7-ylmethyl)urea]"
16,25.4 nM,"COc1cccc(OC)c1C(=O)N1CCC(c2ccc(NC(=O)NCc3ccn4ccnc4c3)cc2)CC1 [Example 949, 1-{4-[1-(2,6-dimethoxybenzoyl)piperidin-4-yl]phenyl}-3-(imidazo[1,2-a]pyridin-7-ylmethyl)urea]"
17,634 nM,"CCN(CC)CCC(=O)N1CCC(c2ccc(NC(=O)NCc3ccn4ccnc4c3)cc2)CC1 [Example 950, 1-{4-[1-(N,N-diethyl-beta-alanyl)piperidin-4-yl]phenyl}-3-(imidazo[1,2-a]pyridin-7-ylmethyl)urea]"
18,63.9 nM,"Cc1cc(C(=O)N2CCC(c3ccc(NC(=O)NCc4ccn5ccnc5c4)cc3)CC2)cc(Cl)n1 [Example 951, 1-(4-{1-[(2-chloro-6-methylpyridin-4-yl)carbonyl]piperidin-4-yl}phenyl)-3-(imidazo[1,2-a]pyridin-7-ylmethyl)urea]"

row,IC50,SMILES
1,10.3 nM,"COc1cccc(CC(=O)N2CCC(c3ccc(NC(=O)NCc4ccn5ccnc5c4)cc3)CC2)c1 [Example 952, 1-(imidazo[1,2-a]pyridin-7-ylmethyl)-3-(4-{1-[(3-methoxyphenyl)acetyl]piperidin-4-yl}phenyl)urea]"
2,2.35 nM,"O=C(NCc1ccn2ccnc2c1)Nc1ccc(C2CCN(C(=O)c3cccc4c3CCC4=O)CC2)cc1 [Example 953, 1-(imidazo[1,2-a]pyridin-7-ylmethyl)-3-(4-{1-[(1-oxo-2,3-dihydro-1H-inden-4-yl)carbonyl]piperidin-4-yl}phenyl)urea]"
3,2.76 nM,"N#Cc1ccc(C(=O)N2CCC(c3ccc(NC(=O)NCc4ccn5ccnc5c4)cc3)CC2)c(Cl)c1 [Example 954, 1-{4-[1-(2-chloro-4-cyanobenzoyl)piperidin-4-yl]phenyl}-3-(imidazo[1,2-a]pyridin-7-ylmethyl)urea]"
4,2.56 nM,"C/C=C(\C)C(=O)N1CCC(c2ccc(NC(=O)NCc3ccn4ccnc4c3)cc2)CC1 [Example 955, 1-(imidazo[1,2-a]pyridin-7-ylmethyl)-3-(4-{1-[(2E)-2-methylbut-2-enoyl]piperidin-4-yl}phenyl)urea]"
5,8.83 nM,"O=C(NCc1ccn2ccnc2c1)Nc1ccc(C2CCN(C(=O)Cc3c[nH]c4ccccc34)CC2)cc1 [Example 956, 1-(imidazo[1,2-a]pyridin-7-ylmethyl)-3-{4-[1-(1H-indol-3-ylacetyl)piperidin-4-yl]phenyl}urea]"
6,3.51 nM,"Cc1cccc(C(=O)N2CCC(c3ccc(NC(=O)NCc4ccn5ccnc5c4)cc3)CC2)c1O [Example 957, 1-{4-[1-(2-hydroxy-3-methylbenzoyl)piperidin-4-yl]phenyl}-3-(imidazo[1,2-a]pyridin-7-ylmethyl)urea]"
7,21.4 nM,"O=C(NCc1ccn2ccnc2c1)c1ccc(C2CCN(C(=O)N3CCCC3)CC2)cc1 [Example 958, N-(imidazo[1,2-a]pyridin-7-ylmethyl)-4-[1-(pyrrolidin-1-ylcarbonyl)piperidin-4-yl]benzamide]"
8,9.76 nM,"CC(C)n1ccc(C(=O)N2CCC(c3ccc(C(=O)NCc4ccn5ccnc5c4)cc3)CC2)n1 [Example 959, N-(imidazo[1,2-a]pyridin-7-ylmethyl)-4-(1-{[1-(propan-2-yl)-1H-pyrazol-3-yl]carbonyl}piperidin-4-yl)benzamide]"
9,6.13 nM,"Cn1nc(C2CC2)cc1C(=O)N1CCC(c2ccc(C(=O)NCc3ccn4ccnc4c3)cc2)CC1 [Example 960, 4-{1-[(3-cyclopropyl-1-methyl-1H-pyrazol-5-yl)carbonyl]piperidin-4-yl}-N-(imidazo[1,2-a]pyridin-7-ylmethyl)benzamide]"
10,8.94 nM,"Cn1nc2c(c1C(=O)N1CCC(c3ccc(C(=O)NCc4ccn5ccnc5c4)cc3)CC1)CCCC2 [Example 961, N-(imidazo[1,2-a]pyridin-7-ylmethyl)-4-{1-[(2-methyl-4,5,6,7-tetrahydro-2H-indazol-3-yl)carbonyl]piperidin-4-yl}benzamide]"
11,16.1 nM,"O=C(NCc1ccn2ccnc2c1)c1ccc(C2CCN(C(=O)c3onc4c3CCCC4)CC2)cc1 [Example 962, N-(imidazo[1,2-a]pyridin-7-ylmethyl)-4-[1-(4,5,6,7-tetrahydro-2,1-benzoxazol-3-ylcarbonyl)piperidin-4-yl]benzamide]"
12,19.5 nM,"Cc1ccc(F)c(C(=O)N2CCC(c3ccc(C(=O)NCc4ccn5ccnc5c4)cc3)CC2)n1 [Example 963, 4-{1-[(3-fluoro-6-methylpyridin-2-yl)carbonyl]piperidin-4-yl}-N-(imidazo[1,2-a]pyridin-7-ylmethyl)benzamide]"
13,6.22 nM,"O=C(NCc1ccn2ccnc2c1)c1ccc(C2CCN(C(=O)c3ccnc(Cl)c3F)CC2)cc1 [Example 964, 4-{1-[(2-chloro-3-fluoropyridin-4-yl)carbonyl]piperidin-4-yl}-N-(imidazo[1,2-a]pyridin-7-ylmethyl)benzamide]"
14,8.31 nM,"O=C(NCc1ccn2ccnc2c1)c1ccc(C2CCN(C(=O)c3ncccc3Cl)CC2)cc1 [Example 965, 4-{1-[(3-chloropyridin-2-yl)carbonyl]piperidin-4-yl}-N-(imidazo[1,2-a]pyridin-7-ylmethyl)benzamide]"
15,2.09 nM,"O=C(NCc1ccn2ccnc2c1)c1ccc(C2CCN(C(=O)C3(c4ccccn4)CC3)CC2)cc1 [Example 966, N-(imidazo[1,2-a]pyridin-7-ylmethyl)-4-(1-{[1-(pyridin-2-yl)cyclopropyl]carbonyl}piperidin-4-yl)benzamide]"
16,3.96 nM,"O=C(NCc1ccn2ccnc2c1)c1ccc(C2CCN(C(=O)c3ccn(C4CCCC4)n3)CC2)cc1 [Example 967, 4-{1-[(1-cyclopentyl-1H-pyrazol-3-yl)carbonyl]piperidin-4-yl}-N-(imidazo[1,2-a]pyridin-7-ylmethyl)benzamide]"
17,1.77 nM,"CC(Oc1cccc(F)c1)C(=O)N1CCC(c2ccc(C(=O)NCc3ccn4ccnc4c3)cc2)CC1 (centres unmarked) [Example 968, 4-{1-[2-(3-fluorophenoxy)propanoyl]piperidin-4-yl}-N-(imidazo[1,2-a]pyridin-7-ylmethyl)benzamide]"
